For six compounds, inhibition results are on record in PubChem BioAssay AID1117328 (Cheminformatics & Chemogenomics Research Group (CCRG), …, 2015).

Active and inactive are the calls of the source. The rule behind the calls is not given here.

Chain of Ribosomal protein S6 kinase beta-1 (Homo sapiens) (P23443 whole entry, looked up): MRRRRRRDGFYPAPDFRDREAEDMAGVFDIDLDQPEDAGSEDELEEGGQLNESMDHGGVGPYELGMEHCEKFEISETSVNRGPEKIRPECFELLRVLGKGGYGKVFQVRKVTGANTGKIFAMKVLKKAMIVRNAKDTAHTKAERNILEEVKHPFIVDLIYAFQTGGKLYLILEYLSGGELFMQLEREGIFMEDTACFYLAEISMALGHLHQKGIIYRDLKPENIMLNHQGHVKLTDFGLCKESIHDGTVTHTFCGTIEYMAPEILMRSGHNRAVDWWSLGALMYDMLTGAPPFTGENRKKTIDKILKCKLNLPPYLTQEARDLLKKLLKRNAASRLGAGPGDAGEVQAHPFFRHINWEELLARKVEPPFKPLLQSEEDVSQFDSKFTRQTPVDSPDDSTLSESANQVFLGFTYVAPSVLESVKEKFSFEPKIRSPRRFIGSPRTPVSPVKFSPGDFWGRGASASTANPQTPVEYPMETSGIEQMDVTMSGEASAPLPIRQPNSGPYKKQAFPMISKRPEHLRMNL

The assay addresses Ribosomal protein S6 kinase beta-1 (Homo sapiens) (UniProt P23443). The assay can be described thus: p70S6K1 kinase inhibitors, biochemical, LANCE Ultra TR-FRET (AID 1117328). The note with it: LANCE Ultra TR-FRET kinase assay, at 20 µM (top of the series).
With `O=C1c2c(O)ccc(O)c2C(=O)c2c(NCCNCCO)ccc(NCCNCCO)c21`, the inhibition (usually the drop in the measured response relative to a control, in per cent) was 21.1%.
Then `COC(=O)Nc1nc2ccc(C(=O)c3cccs3)cc2[nH]1`, with -23.9% (inactive).
For `C[C@@]12C(=O)OC(=O)[C@]1(C)C1CCC2O1` the value was 6.38% (inactive); for `CC[C@@]1(O)C(=O)OCc2c1cc1n(c2=O)Cc2c-1nc1ccccc1c2/C=N/OC(C)(C)C`, -2.02% (inactive).
For `CCc1nc(N)nc(N)c1-c1ccc(Cl)cc1` the value was 11.7% (inactive); for `Cc1ccccc1C(=O)Nc1ccc(C(=O)N2CCCC(N(C)C)c3ccccc32)cc1` (stereo unspecified), -7.07% (inactive).
